Measured values as given in patent US11142527B2, “Dihydropyrimidine compounds and uses thereof in medicine” (SUNSHINE LAKE PHARMA CO., LTD., priority 2017, dated 2021).

How the values were obtained:
[1] = tested on: HBV; test: Test of anti HBV activity in vitro (viral DNA by qPCR); format: cell-based; conditions: Hepatitis B virus; HepG2.2.15 cells, viral DNA in cell culture supernatant by qPCR; read-out: EC50 values of the compound of the invention on viral replication
Procedure, shortened: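 HepG2.2.15 cells (integrated HBV genome) were grown to confluence, then treated with compound in 4-fold dilutions from 4 μM final (0.5% DMSO). Secreted viral DNA in supernatant was quantified by SYBR qPCR against an HBV plasmid standard curve; EC50 from four-parameter nonlinear regression of concentration versus copy number.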

[2] = Cytotoxicity test with CellTiter Glo; format: cell-based; conditions: human, HepG2.2.15 cells, highest concentration 150 μM, read-out: CC50 values of the compounds of the invention
Procedure, shortened: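 HepG2.2.15 cells (3000/well) exposed to serially diluted compound, highest final concentration 150 μM, for 4 days at 37 °C. Viability read by CellTiter Glo, cytotoxicity % taken relative to DMSO controls, and CC50 obtained by four-parameter nonlinear regression.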

[3] = tested on: HBV; conditions: Science, 2003, 299, 893-896; cited from earlier work

Compound	EC50 [1]	CC50 at 4 days [2]	IC50 [3]
COC(=O)C1=C(CN2CCN3C(=O)N(c4ccc(Oc5ccc(C(=O)N6CCOCC6)cc5)cc4)C[C@@H]3C2)NC(c2nccs2)=N[C@H]1c1ccc(F)cc1Cl [Example 56, (R)-methyl 4-(2-chloro-4-fluorophenyl)-6-(((S)-2-(4-(4-(morpholine-4-carbonyl)phenoxy)phenyl)-3-oxohexahydroimidazo[1,5-a]pyrazin-7(1H)-yl)methyl)-2-(thiazol-2-yl)-1,4-dihydropyrimidine-5-carboxylate]	12.4 nM	> 150000 nM	
COC(=O)C1=C(CN2CCN3C(=O)N(c4ccc(Oc5ccc(C#N)cc5)cc4)C[C@@H]3C2)NC(c2nccs2)=N[C@H]1c1ccc(F)cc1Cl [Example 97, (R)-methyl 4-(2-chloro-4-fluorophenyl)-6-(((S)-2-(4-(4-cyanophenoxy)phenyl)-3-oxohexahydroimidazo[1,5-a]pyrazin-7(1H)-yl)methyl)-2-(thiazol-2-yl)-1,4-dihydropyrimidine-5-carboxylate]	36.8 nM	> 150000 nM	
COC(=O)C1=C(CN2CCN3C(=O)N(c4ccnc(-c5ccc(C(=O)O)cc5)c4)C[C@@H]3C2)NC(c2nccs2)=N[C@H]1c1ccc(F)cc1Cl [Example 123, 4-(4-((S)-7-(((R)-6-(2-chloro-4-fluorophenyl)-5-(methoxycarbonyl)-2-(thiazol-2-yl)-3,6-dihydropyrimidin-4-yl)methyl)-3-oxohexahydroimidazo[1,5-a]pyrazin-2(3H)-yl)pyridin-2-yl)benzoic acid]	37.9 nM	> 150000 nM	
Nc1ccn([C@@H]2CS[C@H](CO)O2)c(=O)n1 [lamivudine]			300 nM
COC(=O)C1=C(CN2CCN3C(=O)N(c4cc(F)cc(Oc5ccc(C(=O)O)cc5F)c4)C[C@@H]3C2)NC(c2nccs2)=N[C@H]1c1cccc(F)c1Cl [Example 90, 4-(3-((S)-7-(((R)-6-(2-chloro-3-fluorophenyl)-5-(methoxycarbonyl)-2-(thiazol-2-yl)-3,6-dihydropyrimidin-4-yl)methyl)-3-oxohexahydroimidazo[1,5-a]pyrazin-2(3H)-yl)-5-fluorophenoxy)-3-fluorobenzoic acid]	12.5 nM	> 150000 nM	
COC(=O)C1=C(CN2CCN3C(=O)N(CCC#Cc4ccc(C(=O)O)cc4)C[C@@H]3C2)NC(c2nccs2)=N[C@H]1c1ccc(F)cc1Cl [Example 54, 4-(4-((S)-7-(((R)-6-(2-chloro-4-fluorophenyl)-5-(methoxycarbonyl)-2-(thiazol-2-yl)-3,6-dihydropyrimidin-4-yl)methyl)-3-oxohexahydroimidazo[1,5-a]pyrazin-2(3H)-yl)but-1-yn-1-yl)benzoic acid]	61.3 nM	> 150000 nM	
COC(=O)C1=C(CN2CCN3C(=O)N(c4ccc(-c5ccc(C(=O)O)cc5)c(F)c4)C[C@@H]3C2)NC(c2nccs2)=N[C@H]1c1ccc(F)cc1Cl [Example 35, 4′-((S)-7-(((R)-6-(2-chloro-4-fluorophenyl)-5-(methoxycarbonyl)-2-(thiazol-2-yl)-3,6-dihydropyrimidin-4-yl)methyl)-3-oxohexahydroimidazo[1,5-a]pyrazin-2(3H)-yl)-2′-fluoro-[1,1′-diphenyl]-4-carboxylic acid]	7 nM	> 150000 nM	
COC(=O)C1=C(CN2CCN3C(=O)N(c4ccc(Oc5ccc(C(=O)N6CCCC6(F)F)cc5)cc4)C[C@@H]3C2)NC(c2nccs2)=N[C@H]1c1ccc(F)cc1Cl [Example 57, (R)-methyl 4-(2-chloro-4-fluorophenyl)-6-(((S)-2-(4-(4-(2,2-difluoropyrrolidine-1-carbonyl)phenoxy)phenyl)-3-oxohexahydroimidazo[1,5-a]pyrazin-7(1H)-yl)methyl)-2-(thiazol-2-yl)-1,4-dihydropyrimidine-5-carboxylate]	28.1 nM	> 150000 nM	
COC(=O)C1=C(CN2CCN3C(=O)N(c4nc(-c5ccc(C(C)(C)C(=O)O)cc5)cs4)C[C@@H]3C2)NC(c2nccs2)=N[C@H]1c1ccc(F)cc1Cl [Example 17, 2-(4-(2-((S)-7-(((R)-6-(2-chloro-4-fluorophenyl)-5-(methoxycarbonyl)-2-(thiazol-2-yl)-3,6-dihydropyrimidin-4-yl)methyl)-3-oxohexahydroimidazo[1,5-a]pyrazin-2(3H)-yl)thiazol-4-yl)phenyl)-2-methylpropionic acid]	6 nM	> 150000 nM	
COC(=O)C1=C(CN2CCN3C(=O)N(c4ccc(-c5ccc(C(=O)O)c(F)c5)c(F)c4)C[C@@H]3C2)NC(c2nccs2)=N[C@H]1c1ccc(F)cc1Cl [Example 34, 4′-((S)-7-(((R)-6-(2-chloro-4-fluorophenyl)-5-(methoxycarbonyl)-2-(thiazol-2-yl)-3,6-dihydropyrimidin-4-yl)methyl)-3-oxohexahydroimidazo[1,5-a]pyrazin-2(3H)-yl)-2′,3-difluoro-[1,1′-diphenyl]-4-carboxylic acid]	7 nM	> 150000 nM	
COC(=O)C1=C(CN2CCN3C(=O)N(c4ccc(Oc5ccc(C(C)(C)O)cc5)cc4)C[C@@H]3C2)NC(c2nccs2)=N[C@H]1c1ccc(F)cc1Cl [Example 100, (R)-methyl 4-(2-chloro-4-fluorophenyl)-6-(((S)-2-(4-(4-(2-hydroxyprop-2-yl)phenoxy)phenyl)-3-oxohexahydroimidazo[1,5-a]pyrazin-7(1H)-yl)methyl)-2-(thiazol-2-yl)-1,4-dihydropyrimidine-5-carboxylate]	16.8 nM	> 150000 nM	
COC(=O)C1=C(CN2CCN3C(=O)N(c4ccc(Oc5ccc(C(=O)NCCCC(=O)N(C)C)cc5)cc4)C[C@@H]3C2)NC(c2nccs2)=N[C@H]1c1ccc(F)cc1Cl [Example 71, (R)-methyl 4-(2-chloro-4-fluorophenyl)-6-(((S)-2-(4-(4-((4-(dimethylamino)-4-oxobutyl)carbamoyl)phenoxy)phenyl)-3-oxohexahydroimidazo[1,5-a]pyrazin-7(1H)-yl)methyl)-2-(thiazol-2-yl)-1,4-dihydropyrimidine-5-carboxylate]	16.6 nM	> 150000 nM	
COC(=O)C1=C(CN2CCN3C(=O)N(CC#Cc4ccc(C#N)cc4)C[C@@H]3C2)NC(c2nccs2)=N[C@H]1c1ccc(F)cc1Cl [Example 44, (R)-methyl 4-(2-chloro-4-fluorophenyl)-6-(((S)-2-(3-(4-cyanophenyl)prop-2-yn-1-yl)-3-oxohexahydroimidazo[1,5-a]pyrazin-7(1H)-yl)methyl)-2-(thiazol-2-yl)-1,4-dihydropyrimidine-5-carboxylate]	3.6 nM	> 150000 nM	
